# Laboratory results from BindingDB's records for doi:10.1016/j.bmcl.2011.10.055 (Cephalon, 2011).
# Target: Insulin receptor (Homo sapiens, UniProt P06213)
# Assay: Inhibition of GST-tagged intracellular domain of IR by homogeneous time-resolved fluorescence assay
row,Structure (SMILES),IC50 [µM]
1,C=c1nns/c1=c1\[nH][nH]c(=O)c1=Cc1cn(C)c2cccc(OCc3ccccc3)c12,> 10
2,C=c1nns/c1=c1\[nH][nH]c(=O)c1=Cc1cn(C)c2cccc(OCc3cccc(F)c3)c12,> 10
3,C=c1nns/c1=c1\[nH][nH]c(=O)c1=Cc1cn(C)c2cccc(OCc3ccc(F)cc3F)c12,> 10

# Second part, the compound after the results:
row,IC50 [µM],Structure (SMILES)
1,> 10,C=c1nns/c1=c1\[nH][nH]c(=O)c1=Cc1cn(C)c2cccc(OCc3ccccc3F)c12
2,> 10,C=c1nns/c1=c1\[nH][nH]c(=O)c1=Cc1cn(C)c2cccc(OCc3ccc(F)cc3)c12
